{"source": "patent US12409171B2", "about": "“Pharmaceutically active pyrazolo-pyridone modulators of DCN1/2-mediated cullin neddylation” (UNIVERSITY OF KENTUCKY RESEARCH FOUNDATION, priority 2019, dated 2025)", "data": [{"molecular_target": "DCN1 (Homo sapiens (Human), UniProt Q96GG9)", "sequence (Q96GG9 whole entry)": "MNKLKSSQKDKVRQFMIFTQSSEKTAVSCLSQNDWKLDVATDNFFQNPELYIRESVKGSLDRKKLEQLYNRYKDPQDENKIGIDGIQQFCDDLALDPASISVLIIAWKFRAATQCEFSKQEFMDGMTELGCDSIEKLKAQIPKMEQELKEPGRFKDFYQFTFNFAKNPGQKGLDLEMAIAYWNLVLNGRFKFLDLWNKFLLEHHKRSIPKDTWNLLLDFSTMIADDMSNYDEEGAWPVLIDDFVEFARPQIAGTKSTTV", "assay": "TR-FRET binding assay (biotin-DCN1 / Ac-UBE2M12-AlexaFluor488)", "settings": "mean ± SD (n); read-out: DCN1_TRFRET Mean EC50", "method": "• IC50 values were generated using our TR-FRET binding assay and are represented as the mean of three replicates with errors reported as the standard deviation.\nThe assay cocktail was then incubated for 1 h at room temperature and distributed using a WellMate instrument (Matrix). Compounds to be screened were added to assay plates from DMSO stock solutions by pin transfer using 50SS pins (V&P Scientific). […] All compounds were tested in triplicate or more.", "units": {"EC50": "nM"}, "values": [{"smiles": "CCC(C)n1nc(C)c2c1N(C(C)=O)C(=O)[C@@H](NC(=O)c1cccc(C)c1)[C@H]2c1ccc(F)cc1", "note": "(stereo partly drawn) [RG-0005665, N-[(4S,5S)-7-acetyl-1-(butan-2-yl)-4-(4-fluorophenyl)-3-methyl-6-oxo-1H,4H,5H,6H,7H-pyrazolo[3,4-b]pyridin-5-yl]-3-methylbenzamide]", "EC50": "5310 ± 850"}, {"smiles": "CCN1C(=O)[C@@H](NC(=O)c2cc(C)cc(F)c2)[C@@H](c2ccc(F)cc2)c2c(C)nn(-c3ccccc3)c21", "note": "[RG-0013053, N-[(4S,5S)-7-ethyl-4-(4-fluorophenyl)-3-methyl-6-oxo-1-phenyl-1H,4H,5H,6H,7H-pyrazolo[3,4-b]pyridin-5-yl]-3-fluoro-5-methylbenzamide]", "EC50": "2330 ± 105"}, {"smiles": "Cc1cccc(C(=O)N[C@@H]2C(=O)N(C)c3c(c(C)nn3-c3ccccc3)[C@@H]2c2ccc(F)cc2)c1", "note": "[RG-0005655, N-[(4S,5S)-4-(4-fluorophenyl)-3,7-dimethyl-6-oxo-1-phenyl-1H,4H,5H,6H,7H-pyrazolo[3,4-b]pyridin-5-yl]-3-methylbenzamide]", "EC50": "446 ± 68.1"}, {"smiles": "CCN1C(=O)[C@@H](NC(=O)c2cccc([N+](=O)[O-])c2)[C@@H](c2ccc(F)cc2)c2c(C)nn(-c3ccccc3)c21", "note": "[RG-0013844, N-[(4S,5S)-7-ethyl-4-(4-fluorophenyl)-3-methyl-6-oxo-1-phenyl-1H,4H,5H,6H,7H-pyrazolo[3,4-b]pyridin-5-yl]-3-nitrobenzamide]", "EC50": "1980 ± 134"}, {"smiles": "COC(=O)CN1C(=O)[C@@H](NC(=O)c2cccc(C(F)(F)F)c2)[C@@H](c2ccc(F)cc2)c2c(C)nn(-c3ccccc3)c21", "note": "[RG-0013841, methyl 2-[(4S,5S)-4-(4-fluorophenyl)-3-methyl-6-oxo-1-phenyl-5-[3-(trifluoromethyl)benzamido]-1H,4H,5H,6H,7H-pyrazolo[3,4-b]pyridin-7-yl]acetate]", "EC50": "5540 ± 1080"}, {"smiles": "CCCN1C(=O)[C@@H](NC(=O)c2cccc(C)c2)[C@@H](c2ccc(F)cc2)c2c(C)nn(-c3ccccc3)c21", "note": "[RG-0007415, N-[(4S,5S)-4-(4-fluorophenyl)-3-methyl-6-oxo-1-phenyl-7-propyl-1H,4H,5H,6H,7H-pyrazolo[3,4-b]pyridin-5-yl]-3-methylbenzamide]", "EC50": "1040 ± 204"}, {"smiles": "CCN1C(=O)[C@@H](N)[C@@H](c2ccc(F)cc2)c2c(C)nn(-c3ccccc3)c21", "note": "[RG-0013837, (4S,5S)-5-amino-7-ethyl-4-(4-fluorophenyl)-3-methyl-1-phenyl-1H,4H,5H,6H,7H-pyrazolo[3,4-b]pyridin-6-one]", "EC50": "> 36500"}, {"smiles": "C=CC(=O)NCc1nn(-c2ccccc2)c2c1[C@H](c1ccc(F)cc1)[C@H](NC(=O)c1cccc(C(F)(F)F)c1)C(=O)N2CC", "note": "[RG-0014047, N-[(4S,5S)-7-ethyl-4-(4-fluorophenyl)-6-oxo-1-phenyl-3-[(prop-2-enamido)methyl]-1H,4H,5H,6H,7H-pyrazolo[3,4-b]pyridin-5-yl]-3-(trifluoromethyl)benzamide]", "EC50": "95.3 ± 4.67"}, {"smiles": "C=CC(=O)NCc1nn(-c2ccccc2)c2c1[C@H](c1ccc(F)cc1)[C@H](NC(=O)c1cccc(C)c1)C(=O)N2CC", "note": "[RG-0013063, N-[(4S,5S)-7-ethyl-4-(4-fluorophenyl)-6-oxo-1-phenyl-3-[(prop-2-enamido)methyl]-1H,4H,5H,6H,7H-pyrazolo[3,4-b]pyridin-5-yl]-3-methylbenzamide]", "EC50": "96.8 ± 7.21"}, {"smiles": "CCN1C(=O)[C@@H](NC(=O)C(C)(C)C)[C@@H](c2ccc(F)cc2)c2c(C)nn(-c3ccccc3)c21", "note": "[RG-0014063, N-[(4S,5S)-7-ethyl-4-(4-fluorophenyl)-3-methyl-6-oxo-1-phenyl-1H,4H,5H,6H,7H-pyrazolo[3,4-b]pyridin-5-yl]-2,2-dimethylpropanamide]", "EC50": "> 36500"}, {"smiles": "CCN1C(=O)[C@@H](NC(=O)c2cccc(C(F)(F)F)c2)[C@@H](c2ccc(F)cc2)c2c(CN(C)C)nn(-c3ccccc3)c21", "note": "[RG-0014053, N-[(4S,5S)-3-[(dimethylamino)methyl]-7-ethyl-4-(4-fluorophenyl)-6-oxo-1-phenyl-1H,4H,5H,6H,7H-pyrazolo[3,4-b]pyridin-5-yl]-3-(trifluoromethyl)benzamide]", "EC50": "90.7 ± 4.38"}, {"smiles": "CCN1C(=O)[C@@H](NC(=O)c2cccc(Br)c2)[C@@H](c2ccc(F)cc2)c2c(C)nn(-c3ccccc3)c21", "note": "[RG-0013061, 3-bromo-N-[(4S,5S)-7-ethyl-4-(4-fluorophenyl)-3-methyl-6-oxo-1-phenyl-1H,4H,5H,6H,7H-pyrazolo[3,4-b]pyridin-5-yl]benzamide]", "EC50": "485 ± 41.1"}, {"smiles": "CCN1C(=O)[C@@H](NC(=O)c2cccc(C(F)(F)F)c2)[C@@H](c2ccc(F)cc2)c2c(CN3CCN(C(=O)OC(C)(C)C)CC3)nn(-c3ccccc3)c21", "note": "[RG-0014059, tert-butyl 4-{[(4S,5S)-7-ethyl-4-(4-fluorophenyl)-6-oxo-1-phenyl-5-[3-(trifluoromethyl)benzamido]-1H,4H,5H,6H,7H-pyrazolo[3,4-b]pyridin-3-yl]methyl}piperazine-1-carboxylate]", "EC50": "231 ± 16.5"}, {"smiles": "CCN1C(=O)[C@@H](NC(=O)c2cccc(C(F)(F)F)c2)[C@@H](c2ccc(F)cc2)c2c(CNC(=O)CCCC[C@@H]3SC[C@@H]4NC(=O)N[C@@H]43)nn(-c3ccccc3)c21", "note": "[RG-0014155, N-[(4S,5S)-3-({5-[(3aS,4S,6aR)-2-oxo-hexahydro-1H-thieno[3,4-d]imidazol-4-yl]pentanamido}methyl)-7-ethyl-4-(4-fluorophenyl)-6-oxo-1-phenyl-1H,4H,5H,6H,7H-pyrazolo[3,4-b]pyridin-5-yl]-3-(trifluoromethyl)benzamide]", "EC50": "123 ± 22.5"}, {"smiles": "CCN1C(=O)[C@@H](NC(=O)c2cccc(C(F)(F)F)c2)[C@@H](c2ccc(F)cc2)c2c(CNCC(F)(F)F)nn(-c3ccccc3)c21", "note": "[RG-0014145, N-[(4S,5S)-7-ethyl-4-(4-fluorophenyl)-6-oxo-1-phenyl-3-{[(2,2,2-trifluoroethyl)amino]methyl}-1H,4H,5H,6H,7H-pyrazolo[3,4-b]pyridin-5-yl]-3-(trifluoromethyl)benzamide]", "EC50": "161 ± 13.1"}, {"smiles": "CCN1C(=O)[C@@H](NC(=O)c2cccc(C(F)(F)F)c2)[C@@H](c2ccc(F)cc2)c2c(C)nn(-c3ccc(C)cc3)c21", "note": "[RG-0014036, N-[(4S,5S)-7-ethyl-4-(4-fluorophenyl)-3-methyl-1-(4-methylphenyl)-6-oxo-1H,4H,5H,6H,7H-pyrazolo[3,4-b]pyridin-5-yl]-3-(trifluoromethyl)benzamide]", "EC50": "3210 ± 156"}, {"smiles": "CCCn1nc(C)c2c1N(C)C(=O)[C@@H](NC(=O)c1cccc(C)c1)[C@H]2c1ccc(F)cc1", "note": "[RG-0007411, N-[(4S,5S)-4-(4-fluorophenyl)-3,7-dimethyl-6-oxo-1-propyl-1H,4H,5H,6H,7H-pyrazolo[3,4-b]pyridin-5-yl]-3-methylbenzamide]", "EC50": "585 ± 106"}, {"smiles": "CCN1C(=O)[C@@H](NC(=O)c2cccc(C)c2)[C@@H](c2ccc(F)nc2)c2c(C)nn(-c3ccccc3)c21", "note": "[RG-0009513, N-[(4S,5S)-7-ethyl-4-(6-fluoropyridin-3-yl)-3-methyl-6-oxo-1-phenyl-1H,4H,5H,6H,7H-pyrazolo[3,4-b]pyridin-5-yl]-3-methylbenzamide]", "EC50": "255 ± 28.2"}, {"smiles": "CCN1C(=O)[C@@H](NC(=O)c2cccc(C)c2)[C@@H](c2ccc(F)cc2)c2c(CN)nn(-c3ccccc3)c21", "note": "[RG-0009512, N-[(4S,5S)-3-(aminomethyl)-7-ethyl-4-(4-fluorophenyl)-6-oxo-1-phenyl-1H,4H,5H,6H,7H-pyrazolo[3,4-b]pyridin-5-yl]-3-methylbenzamide]", "EC50": "171 ± 17.9"}, {"smiles": "CCN1C(=O)[C@@H](NC(=O)c2cccc(C(F)(F)F)c2)[C@@H](c2ccc(F)cc2)c2c(CNC(=O)OC)nn(-c3ccccc3)c21", "note": "[RG-0014054, methyl N-{[(4S,5S)-7-ethyl-4-(4-fluorophenyl)-6-oxo-1-phenyl-5-[3-(trifluoromethyl)benzamido]-1H,4H,5H,6H,7H-pyrazolo[3,4-b]pyridin-3-yl]methyl}carbamate]", "EC50": "114 ± 4.73"}, {"smiles": "CCN1C(=O)[C@@H](NC(=O)c2cccc(C(F)(F)F)c2)[C@@H](c2ccc(F)nc2)c2c(CO)nn(-c3ccccc3)c21", "note": "[RG-0013992, N-[(4S,5S)-7-ethyl-4-(6-fluoropyridin-3-yl)-3-(hydroxymethyl)-6-oxo-1-phenyl-1H,4H,5H,6H,7H-pyrazolo[3,4-b]pyridin-5-yl]-3-(trifluoromethyl)benzamide]", "EC50": "157 ± 19.2"}, {"smiles": "CCN1C(=O)[C@@H](NC(=O)c2cccc(C(F)(F)F)c2)[C@@H](c2ccc(F)cc2)c2c(CN3CCNCC3)nn(-c3ccccc3)c21", "note": "[RG-0014141, N-[(4S,5S)-7-ethyl-4-(4-fluorophenyl)-6-oxo-1-phenyl-3-[(piperazin-1-yl)methyl]-1H,4H,5H,6H,7H-pyrazolo[3,4-b]pyridin-5-yl]-3-(trifluoromethyl)benzamide]", "EC50": "141 ± 7.56"}, {"smiles": "CCN1C(=O)[C@@H](NC(=O)c2cccc(S(C)(=O)=O)c2)[C@@H](c2ccc(F)cc2)c2c(C)nn(-c3ccccc3)c21", "note": "[RG-0013977, N-[(4S,5S)-7-ethyl-4-(4-fluorophenyl)-3-methyl-6-oxo-1-phenyl-1H,4H,5H,6H,7H-pyrazolo[3,4-b]pyridin-5-yl]-3-methanesulfonylbenzamide]", "EC50": "> 36500"}, {"smiles": "CCN1C(=O)[C@@H](NC(=O)c2cccc(C(F)(F)F)c2)[C@@H](c2ccc(F)cc2)c2c(CN3CCCC3)nn(-c3ccccc3)c21", "note": "[RG-0014154, N-[(4S,5S)-7-ethyl-4-(4-fluorophenyl)-6-oxo-1-phenyl-3-[(pyrrolidin-1-yl)methyl]-1H,4H,5H,6H,7H-pyrazolo[3,4-b]pyridin-5-yl]-3-(trifluoromethyl)benzamide]", "EC50": "83.5 ± 9.39"}, {"smiles": "Cc1cccc(C(=O)N[C@@H]2CNc3c(c(C)nn3-c3ccccc3)[C@@H]2c2ccc(F)cc2)c1", "note": "[RG-0009506, N-[(4S,5S)-4-(4-fluorophenyl)-3-methyl-1-phenyl-1H,4H,5H,6H,7H-pyrazolo[3,4-b]pyridin-5-yl]-3-methylbenzamide]", "EC50": "> 36500"}, {"smiles": "CCN1C(=O)[C@@H](NC(=O)c2cccc(C)c2)[C@@H](c2ccc(F)cc2)c2c(C)nn(-c3ccc(F)cc3)c21", "note": "[RG-0008866, N-[(4S,5S)-7-ethyl-1,4-bis(4-fluorophenyl)-3-methyl-6-oxo-1H,4H,5H,6H,7H-pyrazolo[3,4-b]pyridin-5-yl]-3-methylbenzamide]", "EC50": "489 ± 18.5"}]}]}
